Data from US11779600B2, “Methods of treating or preventing alzheimer's disease and associated conditions” (CEDARS-SINAI MEDICAL CENTER, priority 2016, dated 2023).

Key:
Assay type in all cases: cell-based, mouse
[1] = tested on: primary cortical neurons (CN); assay: Synaptic toxicity of Aβ1-42 assemblies in primary cortical neurons; conditions: for reduction in co-localized VGluT1/PSD95+ puncta number: 250 nM Aβ assemblies, 12 hours, vs CN in medium alone (FIG. 1D); for decrease of co-localized VGluT1/PSD95+ puncta synaptic number: overnight exposure (FIG. 2E)
Method: Initially, synaptic toxicity induced by stable, structurally defined fAβ1-42 and oAβ1-42 forms in primary cortical neurons (CN) was tested. Neurons were incubated for 12 hours with 250 nM of Aβ assemblies or with medium only (vehicle) during day 8 of culture. An extensive loss of pre- and post-synaptic (VGluT1 & PSD-95, respectively) area and number, induced by both f/oAβ1-42 forms, was clearly detected (FIG. 1A-C). Synaptic density quantification indicated a significant 50% reduction in co-localized VGluT1/PSD95^+ puncta number following fAβ1-42. Moreover, we detected a 70% decrease in puncta number by oAβ1-42 when compared with CN in medium alone (FIG. 1D; p<0.0001). […] Next, Aβ-induced neuritic retraction was assessed. CN were immunolabeled with anti-Tuj1 and the total neuritic length per neuron was precisely quantified (FIG. 2A-D). Overnight incubation of f/oAβ1-42 led to a massive neuritic retraction compared with control CN group (FIG. 2B vs. 2A). Whether untreated- and GA-treated BM-derived MΦ (CD68^+ cells) could prevent synaptic and neuritic loss was tested next. Primary CN and MΦ were co-cultured for 48 h and introduced Aβ1-42 forms during the last 12 hours of co-culture. […] Quantitative analysis of co-localized VGluT1/PSD95^+ puncta synaptic number confirmed decreases of 32% and 65% after overnight exposure to fAβ1-42 or oAβ1-42, respectively (FIG. 2E). […] The in vivo effects of Aβ accumulation on synaptopathy and possible synaptic rescue by GA immunization or grafted BM-CD115^+ Mo was assessed. Pre- and post-synaptic alterations in coronal brain sections of 13m old AD^+(ADtg) mice that received these immune-modulation interventions were quantified (FIG. 3A-D). High magnification z-stack images obtained from 19 predefined areas in hippocampus and entorhinal cortex were captured in respective Bregma regions (FIG. 3A-D).
P1 neurons are prepared as previously reported. Briefly, cortical neurons (CN) are obtained from 1 day old neonatal mice, dissociated, resuspended and plated in 24-well culture plate at 5×10^4/ml cells. BM-MΦ are obtained as described herein. In short, mononuclear enriched BM-derived cells are isolated from C57BL/6 mice and differentiated into MΦ for 7 days. […] Cultures are processed for quantification of synaptic density and neuritic length. […] Microphotographs are shot using a Carl Zeiss ApoTome-equipped Axio Imager ZI fluorescence microscope. Synaptic puncta number and synaptic immunoreactive area are quantified with Puncta Analyzer. Total neurite length is measured using NeuriteTracer. At least 3 coverslips, 36 images and 150 neurons for each condition are analyzed. Average puncta number, synaptic area per image or per neuron will be calculated. […] In brief, on day 9 of culture, spontaneous network activity of CN is recorded for 60 min to gain baseline. […]

iNOS = iNOS expression in macrophages by quantitative ICC; conditions: 24 hours treatment, then fAβ1-42 for 30 min; quantitative ICC (FIG. 16D)
Method: To test amyloid-β phagocytosis by macrophage, in repeated experiments monocytes were isolated from the bone marrow of wild-type mice (n=18 mice) and differentiated into macro-phage by 7-day cultivation in complete RPMI-1640 medium (#21870; Life Technologies) with 10% serum and 20 ng/ml MCSF (#315-02; PeproTech). Bone marrow-derived macrophages (MΦBM) were generated from femurs and tibiae cultured for 6-7 days in complete RPMI 1640 medium (Life Technologies) with 10% FBS, 100 U/ml penicillin, 100 μg/ml streptomycin, 2 mM L-glutamine and 20 ng/ml MCSF (PeproTech). Primary cultures of macrophage were then plated at 1.2×10^5 cells per well (3-4 wells for each condition) in 24-well tissue-culture plates on glass cover-slips overnight. […] The fluorescent signal and its total area were determined and quantified by the conversion of individual images to greyscale and standardizing to baseline using histogram-based thresholds with NIH ImageJ software. […]
The expression of inducible nitric oxide synthase (iNOS), a hallmark of the proinflammatory M1 macrophage phenotype, in different treatment groups was assessed next (FIG. 16C-16D). […] Quantitative ICC assays confirmed a significant ˜1.3-fold increase in iNOS expression by minocycline-treated macrophages, and a substantial 48% reduction in Aβ^1-42 phagocytosis. […]

[2] = tested on: bone marrow-derived macrophages (MΦ^BM); assay: Fibrillar Aβ1-42 phagocytosis assay in bone marrow-derived macrophages; conditions: 24 hours treatment, then fAβ1-42 for 30 min; quantitative ICC (FIG. 16E)
Method: Lyophilized non-fluoro amyloid-β1-42 peptide (#20276; Anaspec) was initially monomerized by dissolving it in ice-cold HFIP (hexafluoroisopropanol) (#52512; Sigma) to a final concentration of 1 mM and then aliquoted in sterile siliconized microcentrifuge tubes. The HFIP was first evaporated while in the sterile hood and then under vacuum conditions in a SpeedVac for 2 h to remove any trace of HFIP; the peptide film was stored at −20° C. until use. To induce fibril formation, fluoro (HiLyte647; #64161; Anaspec) and non-fluoro amyloid-β1-42 films were resuspended in media to which 10% of sterile NaOH 60 mM was first added and the media were vortexed for 30 s. Then, a sterile 45% H2O and a sterile 45% solution of 20 mM NaH2PO4+Na2HPO4 (pH 7.4) were added, and the media were vortexed again and incubated on a shaker for 2 weeks at 37° C. Pre-formed amyloid-β1-42 fibrils were then sonicated for 60 s and diluted to 100 nM using the same media prior to the phagocytosis assay.
To test amyloid-β phagocytosis by macrophage, in repeated experiments monocytes were isolated from the bone marrow of wild-type mice (n=18 mice) and differentiated into macro-phage by 7-day cultivation in complete RPMI-1640 medium (#21870; Life Technologies) with 10% serum and 20 ng/ml MCSF (#315-02; PeproTech). Bone marrow-derived macrophages (MΦBM) were generated from femurs and tibiae cultured for 6-7 days in complete RPMI 1640 medium (Life Technologies) with 10% FBS, 100 U/ml penicillin, 100 μg/ml streptomycin, 2 mM L-glutamine and 20 ng/ml MCSF (PeproTech). Primary cultures of macrophage were then plated at 1.2×10^5 cells per well (3-4 wells for each condition) in 24-well tissue-culture plates on glass cover-slips overnight. Next, macrophages were either treated with 30 μg/ml GA (Copaxone®; TEVA Neuroscience), Brefeldin A (BFA; Sigma, 1X), or 10 μM Minocycline (Sigma) for the duration of 1, 3, or 24 h, or not treated (control group). Before addition of fibrillar amyloid-β1-42, the cells were chilled in a 4° C. ice bath for 5 min; immediately after addition of the preformed fibrillar amyloid-β1-42 (100 nM), the plates were centrifuged at 515g in 25° C. followed by incubation at 37° C. for 30 or 60 min. The cells were then rinsed with amyloid-β-free medium to remove non-incorporated amyloid-β and later washed twice with PBS. Methanol (99.8%) at −20° C. for 20 min or 4% paraformaldehyde at room temperature for 12 min was used for fixation of the cells followed by repeated washes with PBS. […] The fluorescent signal and its total area were determined and quantified by the conversion of individual images to greyscale and standardizing to baseline using histogram-based thresholds with NIH ImageJ software. […]

| Compound | reduction in co-localized VGluT1/PSD95+ puncta number [1] [%] | decrease of co-localized VGluT1/PSD95+ puncta synaptic number [1] [%] | increase in iNOS expression (iNOS) [fold] | reduction in Aβ1-42 phagocytosis [2] [%] |
| --- | --- | --- | --- | --- |
| oAβ1-42: stabilized oligomeric amyloid-β1-42 assemblies | 70 | 65 |  |  |
| fAβ1-42: pre-formed fibrils of amyloid-β1-42 peptide | 50 | 32 |  |  |
| CN(C)c1ccc(O)c2c1C[C@H]1C[C@H]3[C@H](N(C)C)C(O)=C(C(N)=O)C(=O)[C@@]3(O)C(O)=C1C2=O [minocycline, Minocycline] |  |  | ~1.3 | 48 |
